Data reported in ChEMBL document CHEMBL4507317, “Data for DCP probe BAY-899” (2021).

Columns and labels:
[1] = tested on: Mast/stem cell growth factor receptor Kit (Homo sapiens), P10721 [L576P]; details: Compound concentration 1000.0 nM
[2] = biological target: Ephrin type-A receptor 4 (Homo sapiens) (UniProt P54764); details: Compound concentration 1000.0 nM
[3] = tested on: Tyrosine-protein kinase ABL1 (Homo sapiens), P00519 [F317L]; details: Compound concentration 1000.0 nM
[4] = biological target: Calcium/calmodulin-dependent protein kinase kinase 1 (Homo sapiens) (UniProt Q8N5S9); details: Compound concentration 1000.0 nM
[5] = biological target: Angiopoietin-1 receptor (Homo sapiens) (UniProt Q02763); details: Compound concentration 1000.0 nM
[6] = biological target: Serine/threonine-protein kinase TAO3 (Homo sapiens) (UniProt Q9H2K8); details: Compound concentration 1000.0 nM
[7] = biological target: Cyclin-dependent kinase 4 (Homo sapiens) (UniProt P11802); details: Compound concentration 1000.0 nM
[8] = biological target: Mitogen-activated protein kinase kinase kinase 10 (Homo sapiens) (UniProt Q02779); details: Compound concentration 1000.0 nM
[9] = biological target: Tyrosine-protein kinase Mer (Homo sapiens) (UniProt Q12866); details: Compound concentration 1000.0 nM
[10] = biological target: Mitotic checkpoint serine/threonine-protein kinase BUB1 (Homo sapiens) (UniProt O43683); details: Compound concentration 1000.0 nM
[11] = biological target: 5-hydroxytryptamine receptor 1B (Homo sapiens) (UniProt P28222); details: Compound concentration 10.0 uM
[12] = biological target: Serine/threonine-protein kinase RIO1 (Homo sapiens) (UniProt Q9BRS2); details: Compound concentration 1000.0 nM
[13] = biological target: Tyrosine-protein kinase Yes (Homo sapiens) (UniProt P07947); details: Compound concentration 1000.0 nM
[14] = biological target: Serine/threonine-protein kinase Nek6 (Homo sapiens) (UniProt Q9HC98); details: Compound concentration 1000.0 nM
[15] = biological target: Testis-specific serine/threonine-protein kinase 3 (Homo sapiens) (UniProt Q96PN8); details: Compound concentration 1000.0 nM
[16] = biological target: Focal adhesion kinase 1 (Homo sapiens) (UniProt Q05397); details: Compound concentration 1000.0 nM
Sequence of Focal adhesion kinase 1 (Homo sapiens) (Q05397 2-1052 limits assumed): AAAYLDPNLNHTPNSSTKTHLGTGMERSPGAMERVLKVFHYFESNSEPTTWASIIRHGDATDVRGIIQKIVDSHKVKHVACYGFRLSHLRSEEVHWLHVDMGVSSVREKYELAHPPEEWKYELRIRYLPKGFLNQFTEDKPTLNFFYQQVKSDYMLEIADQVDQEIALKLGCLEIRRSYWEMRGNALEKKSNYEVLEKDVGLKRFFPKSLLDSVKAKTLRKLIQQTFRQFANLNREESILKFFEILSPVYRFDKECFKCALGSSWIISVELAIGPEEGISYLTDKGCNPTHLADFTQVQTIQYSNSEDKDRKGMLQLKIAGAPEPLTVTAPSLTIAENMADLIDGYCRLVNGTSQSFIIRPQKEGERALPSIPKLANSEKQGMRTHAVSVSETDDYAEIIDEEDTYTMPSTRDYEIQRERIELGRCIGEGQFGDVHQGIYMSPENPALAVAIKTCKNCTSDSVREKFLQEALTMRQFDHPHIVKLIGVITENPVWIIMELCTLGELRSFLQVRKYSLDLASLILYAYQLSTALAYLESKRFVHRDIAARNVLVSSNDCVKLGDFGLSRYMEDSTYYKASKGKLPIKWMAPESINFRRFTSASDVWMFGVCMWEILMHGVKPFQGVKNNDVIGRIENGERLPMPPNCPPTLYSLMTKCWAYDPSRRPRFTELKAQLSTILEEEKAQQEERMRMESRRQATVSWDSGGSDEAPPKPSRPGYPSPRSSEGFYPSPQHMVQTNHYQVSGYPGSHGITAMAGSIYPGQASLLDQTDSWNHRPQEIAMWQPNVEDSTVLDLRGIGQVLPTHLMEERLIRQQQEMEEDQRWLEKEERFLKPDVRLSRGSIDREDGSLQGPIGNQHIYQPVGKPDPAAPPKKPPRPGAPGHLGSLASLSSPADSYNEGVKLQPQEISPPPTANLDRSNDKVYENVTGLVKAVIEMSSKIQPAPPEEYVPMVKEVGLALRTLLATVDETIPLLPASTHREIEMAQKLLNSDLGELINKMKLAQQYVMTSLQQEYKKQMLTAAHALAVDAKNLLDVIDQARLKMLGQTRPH

[17] = biological target: Mitogen-activated protein kinase kinase kinase 3 (Homo sapiens) (UniProt Q99759); details: Compound concentration 1000.0 nM
[18] = biological target: Serine/threonine-protein kinase pim-3 (Homo sapiens) (UniProt Q86V86); details: Compound concentration 1000.0 nM
[19] = biological target: Sigma non-opioid intracellular receptor 1 (Homo sapiens, UniProt Q99720); assay: GPCRScan assay: inhibition of Sigma 1; parameters: radioligand conc. used [nm] 4.0 – 5.0, parental cells HEKT
[20] = biological target: Calcium/calmodulin-dependent protein kinase type II subunit gamma (Homo sapiens) (UniProt Q13555); details: Compound concentration 1000.0 nM
Sequence of Calcium/calmodulin-dependent protein kinase type II subunit gamma (Homo sapiens) (Q13555 whole entry): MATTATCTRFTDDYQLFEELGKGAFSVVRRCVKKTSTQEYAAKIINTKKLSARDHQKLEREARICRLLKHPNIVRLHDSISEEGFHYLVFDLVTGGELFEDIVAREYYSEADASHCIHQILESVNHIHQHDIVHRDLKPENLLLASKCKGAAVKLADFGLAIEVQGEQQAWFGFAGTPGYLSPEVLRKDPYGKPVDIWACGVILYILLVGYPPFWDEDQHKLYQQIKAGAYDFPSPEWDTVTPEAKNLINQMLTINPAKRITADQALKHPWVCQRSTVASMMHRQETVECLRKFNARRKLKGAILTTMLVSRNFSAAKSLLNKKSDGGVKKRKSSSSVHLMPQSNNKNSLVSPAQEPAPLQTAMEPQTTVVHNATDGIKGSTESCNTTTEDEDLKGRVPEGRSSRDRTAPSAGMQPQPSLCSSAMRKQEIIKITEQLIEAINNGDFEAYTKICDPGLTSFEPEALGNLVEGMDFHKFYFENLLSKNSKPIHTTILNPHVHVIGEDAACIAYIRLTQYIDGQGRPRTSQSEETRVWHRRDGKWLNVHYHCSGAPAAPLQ

[21] = biological target: Cyclin-dependent kinase 11A (Homo sapiens) (UniProt Q9UQ88); details: Compound concentration 1000.0 nM
[22] = biological target: Serine/threonine-protein kinase PAK 5 (Homo sapiens) (UniProt Q9P286); details: Compound concentration 1000.0 nM
[23] = biological target: Receptor tyrosine-protein kinase erbB-2 (Homo sapiens) (UniProt P04626); details: Compound concentration 1000.0 nM
[24] = biological target: Dual specificity protein kinase CLK1 (Homo sapiens) (UniProt P49759); details: Compound concentration 1000.0 nM
[25] = biological target: Myosin light chain kinase, smooth muscle (Homo sapiens) (UniProt Q15746); details: Compound concentration 1000.0 nM
[26] = biological target: Phosphatidylinositol 4-kinase beta (Homo sapiens) (UniProt Q9UBF8); details: Compound concentration 1000.0 nM
[27] = biological target: Phosphatidylinositol 4,5-bisphosphate 3-kinase catalytic subunit gamma isoform (Homo sapiens) (UniProt P48736); details: Compound concentration 1000.0 nM
[28] = biological target: Serine/threonine-protein kinase ULK2 (Homo sapiens) (UniProt Q8IYT8); details: Compound concentration 1000.0 nM
[29] = biological target: Serine/threonine-protein kinase BRSK2 (Homo sapiens) (UniProt Q8IWQ3); details: Compound concentration 1000.0 nM
[30] = tested on: Receptor-type tyrosine-protein kinase FLT3 (Homo sapiens), P36888 [R834Q]; details: Compound concentration 1000.0 nM
[31] = biological target: Phosphatidylinositol 5-phosphate 4-kinase type-2 gamma (Homo sapiens) (UniProt Q8TBX8); details: Compound concentration 1000.0 nM
[32] = biological target: Protein kinase C theta type (Homo sapiens) (UniProt Q04759); details: Compound concentration 1000.0 nM
[33] = biological target: Serine/threonine-protein kinase RIO3 (Homo sapiens) (UniProt O14730); details: Compound concentration 1000.0 nM
[34] = biological target: Hepatocyte growth factor receptor (Homo sapiens) (UniProt P08581); details: Compound concentration 1000.0 nM
[35] = biological target: D(4) dopamine receptor (Homo sapiens) (UniProt P21917); details: Compound concentration 10.0 uM
[36] = biological target: Serine/threonine-protein kinase PLK1 (Homo sapiens) (UniProt P53350); details: Compound concentration 1000.0 nM
Sequence of Serine/threonine-protein kinase PLK1 (Homo sapiens) (P53350 whole entry, canonical isoform): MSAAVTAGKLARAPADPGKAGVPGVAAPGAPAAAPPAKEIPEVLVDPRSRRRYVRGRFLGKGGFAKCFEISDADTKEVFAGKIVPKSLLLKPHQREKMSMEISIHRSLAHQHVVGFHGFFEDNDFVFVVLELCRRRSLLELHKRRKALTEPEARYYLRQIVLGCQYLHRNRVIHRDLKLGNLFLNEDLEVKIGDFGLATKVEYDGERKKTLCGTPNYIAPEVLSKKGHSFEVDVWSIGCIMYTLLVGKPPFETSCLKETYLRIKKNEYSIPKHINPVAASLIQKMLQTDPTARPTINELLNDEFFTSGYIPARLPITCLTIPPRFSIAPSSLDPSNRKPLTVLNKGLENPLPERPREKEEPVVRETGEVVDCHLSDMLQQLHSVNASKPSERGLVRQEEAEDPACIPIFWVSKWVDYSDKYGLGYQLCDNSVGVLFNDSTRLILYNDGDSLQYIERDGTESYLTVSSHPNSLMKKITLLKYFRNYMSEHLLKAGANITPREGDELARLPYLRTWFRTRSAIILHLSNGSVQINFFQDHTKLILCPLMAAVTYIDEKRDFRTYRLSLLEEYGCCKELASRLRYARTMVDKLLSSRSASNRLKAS

[37] = biological target: Casein kinase I isoform delta (Homo sapiens) (UniProt P48730); details: Compound concentration 1000.0 nM
Sequence of Casein kinase I isoform delta (Homo sapiens) (P48730 whole entry, looked up, canonical isoform): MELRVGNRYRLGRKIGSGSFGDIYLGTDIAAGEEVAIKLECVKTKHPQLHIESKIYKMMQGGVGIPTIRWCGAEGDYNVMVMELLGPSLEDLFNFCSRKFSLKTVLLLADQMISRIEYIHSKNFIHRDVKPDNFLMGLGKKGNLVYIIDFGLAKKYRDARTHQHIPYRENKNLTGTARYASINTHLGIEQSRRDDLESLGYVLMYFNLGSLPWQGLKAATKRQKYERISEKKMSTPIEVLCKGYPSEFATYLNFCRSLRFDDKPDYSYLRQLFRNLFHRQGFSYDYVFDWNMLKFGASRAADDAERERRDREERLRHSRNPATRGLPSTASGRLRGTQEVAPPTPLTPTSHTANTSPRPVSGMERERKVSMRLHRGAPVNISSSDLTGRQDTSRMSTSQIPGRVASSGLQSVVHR

[38] = biological target: ALK tyrosine kinase receptor (Homo sapiens) (UniProt Q9UM73); details: Compound concentration 1000.0 nM
Sequence of ALK tyrosine kinase receptor (Homo sapiens) (Q9UM73 19-1620 limits assumed): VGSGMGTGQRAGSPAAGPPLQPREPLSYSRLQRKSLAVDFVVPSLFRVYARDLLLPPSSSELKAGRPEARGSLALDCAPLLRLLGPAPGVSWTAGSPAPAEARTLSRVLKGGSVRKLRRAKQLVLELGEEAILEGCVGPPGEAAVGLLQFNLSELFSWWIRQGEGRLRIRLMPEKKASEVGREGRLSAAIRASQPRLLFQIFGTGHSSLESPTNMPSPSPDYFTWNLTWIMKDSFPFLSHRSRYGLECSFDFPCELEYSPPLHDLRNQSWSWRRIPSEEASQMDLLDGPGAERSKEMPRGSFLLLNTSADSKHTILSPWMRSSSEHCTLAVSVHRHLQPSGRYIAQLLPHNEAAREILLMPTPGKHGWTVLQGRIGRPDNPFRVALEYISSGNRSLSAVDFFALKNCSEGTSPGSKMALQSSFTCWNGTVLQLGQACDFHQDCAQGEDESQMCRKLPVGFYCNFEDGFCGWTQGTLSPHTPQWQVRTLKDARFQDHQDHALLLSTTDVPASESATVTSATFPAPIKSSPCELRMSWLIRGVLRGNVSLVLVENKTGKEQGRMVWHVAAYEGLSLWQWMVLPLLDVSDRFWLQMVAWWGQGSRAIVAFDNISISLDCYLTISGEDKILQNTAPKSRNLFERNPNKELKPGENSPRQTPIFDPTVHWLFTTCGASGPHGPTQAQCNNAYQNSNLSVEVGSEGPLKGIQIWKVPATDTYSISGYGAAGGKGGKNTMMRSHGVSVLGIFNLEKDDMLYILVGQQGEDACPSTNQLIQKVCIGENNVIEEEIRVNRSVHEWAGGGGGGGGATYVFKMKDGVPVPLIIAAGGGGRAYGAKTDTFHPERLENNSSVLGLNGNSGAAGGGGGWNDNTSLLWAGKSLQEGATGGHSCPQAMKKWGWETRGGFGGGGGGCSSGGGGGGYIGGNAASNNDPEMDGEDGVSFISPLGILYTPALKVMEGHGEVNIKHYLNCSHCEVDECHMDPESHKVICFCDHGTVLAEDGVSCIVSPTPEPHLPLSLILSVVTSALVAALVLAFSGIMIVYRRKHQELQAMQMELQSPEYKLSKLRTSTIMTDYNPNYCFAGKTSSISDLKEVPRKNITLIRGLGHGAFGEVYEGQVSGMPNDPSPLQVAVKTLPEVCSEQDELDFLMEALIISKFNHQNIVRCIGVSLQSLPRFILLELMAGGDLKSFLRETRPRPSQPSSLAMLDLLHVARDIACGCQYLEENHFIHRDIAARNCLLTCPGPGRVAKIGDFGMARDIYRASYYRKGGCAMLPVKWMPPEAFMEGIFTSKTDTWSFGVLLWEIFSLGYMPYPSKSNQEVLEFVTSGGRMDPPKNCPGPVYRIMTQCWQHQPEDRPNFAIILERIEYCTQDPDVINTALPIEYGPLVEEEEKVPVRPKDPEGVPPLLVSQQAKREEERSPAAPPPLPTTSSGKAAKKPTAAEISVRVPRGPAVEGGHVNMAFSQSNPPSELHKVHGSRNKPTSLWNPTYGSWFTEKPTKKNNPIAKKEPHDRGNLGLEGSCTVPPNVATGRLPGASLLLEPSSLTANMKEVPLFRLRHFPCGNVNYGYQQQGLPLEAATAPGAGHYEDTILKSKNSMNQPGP

[39] = biological target: Receptor-type tyrosine-protein kinase FLT3 (Homo sapiens) (UniProt P36888); details: Compound concentration 1000.0 nM
[40] = biological target: Cyclin-dependent kinase 18 (Homo sapiens) (UniProt Q07002); details: Compound concentration 1000.0 nM
[41] = biological target: Ribosomal protein S6 kinase alpha-2 (Homo sapiens) (UniProt Q15349); details: Compound concentration 1000.0 nM
Sequence of Ribosomal protein S6 kinase alpha-2 (Homo sapiens) (Q15349 whole entry): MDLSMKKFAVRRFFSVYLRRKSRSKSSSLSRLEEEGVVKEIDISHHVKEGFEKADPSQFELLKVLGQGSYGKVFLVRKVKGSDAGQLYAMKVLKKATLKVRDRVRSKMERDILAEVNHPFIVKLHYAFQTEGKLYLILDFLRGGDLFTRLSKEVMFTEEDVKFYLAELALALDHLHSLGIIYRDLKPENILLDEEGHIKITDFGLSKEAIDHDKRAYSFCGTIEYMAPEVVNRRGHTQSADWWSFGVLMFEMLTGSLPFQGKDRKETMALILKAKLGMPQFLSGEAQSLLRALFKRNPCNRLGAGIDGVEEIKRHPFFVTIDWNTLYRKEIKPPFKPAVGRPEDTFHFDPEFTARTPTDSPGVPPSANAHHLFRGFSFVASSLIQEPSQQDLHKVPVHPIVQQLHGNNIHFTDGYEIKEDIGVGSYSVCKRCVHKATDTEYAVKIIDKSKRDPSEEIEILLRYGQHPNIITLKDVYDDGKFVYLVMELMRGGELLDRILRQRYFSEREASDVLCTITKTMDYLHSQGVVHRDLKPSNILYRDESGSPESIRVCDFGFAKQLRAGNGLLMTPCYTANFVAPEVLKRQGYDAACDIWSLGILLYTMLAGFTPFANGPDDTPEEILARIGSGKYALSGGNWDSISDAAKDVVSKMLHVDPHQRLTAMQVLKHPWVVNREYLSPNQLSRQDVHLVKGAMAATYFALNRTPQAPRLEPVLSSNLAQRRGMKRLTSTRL

[42] = biological target: Bone morphogenetic protein receptor type-1A (Homo sapiens) (UniProt P36894); details: Compound concentration 1000.0 nM
[43] = biological target: Mitogen-activated protein kinase 9 (Homo sapiens) (UniProt P45984); details: Compound concentration 1000.0 nM
[44] = biological target: Mitogen-activated protein kinase 13 (Homo sapiens) (UniProt O15264); details: Compound concentration 1000.0 nM
[45] = biological target: Misshapen-like kinase 1 (Homo sapiens) (UniProt Q8N4C8); details: Compound concentration 1000.0 nM

O=C(Nc1ccc(Oc2ccc(F)cc2)cc1)N1CCc2ncccc2[C@H]1c1ccc(F)cc1 [BAY-897] gave a residual activity [1] of 100%, a residual activity [2] of 100% and a residual activity [3] of 70%. The residual activity [4] was 99%, the residual activity [5] was 100% and the residual activity [6] was 92%. It also gave a residual activity [7] of 94%, a residual activity [8] of 100% and a residual activity [9] of 96%. It also gave a residual activity [10] of 98%, an inhibition [11] of 18.8% and a residual activity [12] of 100%. It also gave a residual activity [13] of 100%, a residual activity [14] of 100% and a residual activity [15] of 98%. It also gave a residual activity [16] of 100%, a residual activity [17] of 87% and a residual activity [18] of 79%. It also gave a Ki [19] of 2.4 µM, a residual activity [20] of 96% and a residual activity [21] of 92%. For the same compound, the residual activity [22] was 100%, the residual activity [23] was 100% and the residual activity [24] was 86%. The residual activity [25] was 100%, the residual activity [26] was 75% and the residual activity [27] was 87%. For the same compound, the residual activity [28] was 98%, the residual activity [29] was 95% and the residual activity [30] was 97%. For the same compound, the residual activity [31] was 94%, the residual activity [32] was 95% and the residual activity [33] was 96%. For the same compound, the residual activity [34] was 100%, the inhibition [35] was 0.29% and the residual activity [36] was 78%. For the same compound, the residual activity [37] was 90%, the residual activity [38] was 100% and the residual activity [39] was 77%. For the same compound, the residual activity [40] was 98%, the residual activity [41] was 100% and the residual activity [42] was 100%. The residual activity [43] was 88%, the residual activity [44] was 96% and the residual activity [45] was 99%.

Work on O=C(Nc1cnc(Oc2ccc(F)cc2)nc1)N1CCc2ncccc2[C@@H]1c1ccc(F)cc1 [BAY-899] yielded a residual activity [1] of 100%, a residual activity [2] of 88% and a residual activity [3] of 81%. The residual activity [4] was 92%, the residual activity [5] was 93% and the residual activity [6] was 100%. The residual activity [7] was 100%, the residual activity [8] was 77% and the residual activity [9] was 100%. It also gave a residual activity [10] of 92%, an inhibition [11] of 36.4% and a residual activity [12] of 89%. It also gave a residual activity [13] of 98%, a residual activity [14] of 100% and a residual activity [15] of 86%. For the same compound, the residual activity [16] was 100%, the residual activity [17] was 97% and the residual activity [18] was 82%. The Ki [19] was 1.43 µM, the residual activity [20] was 80% and the residual activity [21] was 91%. It also gave a residual activity [22] of 95%, a residual activity [23] of 80% and a residual activity [24] of 80%. For the same compound, the residual activity [25] was 100%, the residual activity [26] was 89% and the residual activity [27] was 85%. The residual activity [28] was 93%, the residual activity [29] was 89% and the residual activity [30] was 99%. For the same compound, the residual activity [31] was 86%, the residual activity [32] was 94% and the residual activity [33] was 89%. It also gave a residual activity [34] of 100%, an inhibition [35] of 43.8% and a residual activity [36] of 80%. For the same compound, the residual activity [37] was 100%, the residual activity [38] was 99% and the residual activity [39] was 84%. For the same compound, the residual activity [40] was 96%, the residual activity [41] was 97% and the residual activity [42] was 100%. It also gave a residual activity [43] of 85%, a residual activity [44] of 100% and a residual activity [45] of 100%.
